Measured values as given in PubChem BioAssay AID328 (DTP/NCI, 2004).
Inconclusive results and toxic doses are left out.

System: BDF1 mice, P388 leukemia ip, median survival T/C
Assay: NCI In Vivo Anticancer Drug Screen. Data for tumor model P388 Leukemia (intraperitoneal) in B6D2F1 (BDF1) mice
Settings: endpoint: median survival time, higher = longer survival
In short: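 Compound-treated tumour-bearing mice were compared with vehicle-treated controls. Survival was recorded, and the value is the treated-group measurement divided by the control-group measurement (T/C).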

[1] = dose: 100.0 mg/kg/injection, schedule: Q04DX002 (ip), vehicle: saline with Tween-80
[2] = dose: 200.0 mg/kg/injection, schedule: Q04DX002 (ip), vehicle: saline with Tween-80
[3] = dose: 400.0 mg/kg/injection, schedule: Q04DX002 (ip), vehicle: saline with Tween-80
[4] = dose: 50.0 mg/kg/injection, schedule: Q01DX009 (ip), vehicle: saline with Tween-80
[5] = dose: 100.0 mg/kg/injection, schedule: Q01DX009 (ip), vehicle: saline with Tween-80
[6] = dose: 200.0 mg/kg/injection, schedule: Q01DX009 (ip), vehicle: saline with Tween-80

Q: Which T/C [1] does the source give for `O=S1(=O)C(Cc2ccccc2)CCCN1c1ccccc1` (stereo not drawn) here?
A: Its T/C is 104 % of control.

Q: And the T/C [2]?
A: The T/C was 104 % of control.

Q: What about the T/C [3] of the same compound?
A: Its T/C is 102 % of control.

Q: Which results are given for `Fc1ccc(CSc2ncnc3c2ncn3C2CCCCO2)cc1` (stereo not drawn)?
A: T/C (dose: 100.0 mg/kg/injection, schedule: Q04DX003 (ip), vehicle: other): 100 % of control; T/C (dose: 200.0 mg/kg/injection, schedule: Q01DX009 (ip), vehicle: Klucel (hydroxypropylcellulose) (HPC)): 100 % of control; T/C (dose: 200.0 mg/kg/injection, schedule: Q04DX003 (ip), vehicle: other): 100 % of control; T/C (dose: 400.0 mg/kg/injection, schedule: Q04DX003 (ip), vehicle: other): 105 % of control

Q: For `C=CC(C#N)(C=C)C=C`, which T/C [4] is on record?
A: Its T/C is 104 % of control.

Q: Which T/C [5] does the source give for `O=S1(=O)CC2(N3CCOCC3)CCCCC21` (stereo not drawn) here?
A: Its T/C is 100 % of control.

Q: What about the T/C [6] of the same compound?
A: The T/C was 100 % of control.

Q: What about the T/C (dose: 400.0 mg/kg/injection, schedule: Q01DX009 (ip), vehicle: saline with Tween-80) of the same compound?
A: Its T/C is 112 % of control.

Q: Which T/C [4] does the source give for `CC1(O)c2cccc(Sc3ccccc3)c2C(C)(O)c2c(Sc3ccccc3)cccc21` (stereo not drawn) here?
A: The T/C was 107 % of control.

Q: What about the T/C [5] of the same compound?
A: Its T/C is 99 % of control.

Q: And the T/C [6]?
A: Its T/C is 98 % of control.

Q: For `CC[C@H](CC[C@@H](C)[C@H]1CC[C@H]2[C@@H]3CC=C4C[C@@H](OC(=O)CN5CCNCC5)CC[C@]4(C)[C@H]3CC[C@]12C)C(C)C`, which T/C (dose: 50.0 mg/kg/injection, schedule: Q01DX009 (ip), vehicle: Klucel (hydroxypropylcellulose) (HPC)) is on record?
A: Its T/C is 104 % of control.

Q: What about the T/C (dose: 100.0 mg/kg/injection, schedule: Q01DX009 (ip), vehicle: Klucel (hydroxypropylcellulose) (HPC)) of the same compound?
A: The T/C was 104 % of control.

Q: With `O=C(COc1ccc(Cl)c(Cl)c1)N(Cc1ccccc1)Cc1cccnc1` as the compound, how does the T/C (dose: 50.0 mg/kg/injection, schedule: Q04DX003 (ip), vehicle: Klucel (hydroxypropylcellulose) (HPC)) read?
A: The T/C was 86 % of control.

Q: What about the T/C (dose: 100.0 mg/kg/injection, schedule: Q04DX003 (ip), vehicle: Klucel (hydroxypropylcellulose) (HPC)) of the same compound?
A: Its T/C is 95 % of control.

Q: What about the T/C (dose: 200.0 mg/kg/injection, schedule: Q04DX003 (ip), vehicle: Klucel (hydroxypropylcellulose) (HPC)) of the same compound?
A: Its T/C is 104 % of control.

Q: How did the T/C (dose: 0.5 mg/kg/injection, schedule: Q04DX003 (ip), vehicle: Klucel (hydroxypropylcellulose) (HPC)) turn out when `NC(Cc1ccc(OC2CCCC2)c(N(CCCl)CCCl)c1)C(=O)O` (stereo not drawn) was run?
A: The T/C was 104 % of control.

Q: And the T/C (dose: 1.0 mg/kg/injection, schedule: Q04DX003 (ip), vehicle: Klucel (hydroxypropylcellulose) (HPC))?
A: The T/C was 118 % of control.

Q: And the T/C (dose: 2.5 mg/kg/injection, schedule: Q04DX003 (ip), vehicle: saline)?
A: The T/C was 195 % of control.

Q: And the T/C (dose: 5.0 mg/kg/injection, schedule: Q04DX003 (ip), vehicle: saline)?
A: Its T/C is 227 % of control.

Q: And the T/C (dose: 7.5 mg/kg/injection, schedule: Q04DX003 (ip), vehicle: saline)?
A: The T/C was 163 % of control.

Q: What about the T/C (dose: 15.0 mg/kg/injection, schedule: Q04DX003 (ip), vehicle: other) of the same compound?
A: Its T/C is 179 % of control.

Q: What about the T/C (dose: 15.0 mg/kg/injection, schedule: Q04DX003 (ip), vehicle: saline) of the same compound?
A: The T/C was 154 % of control.

Q: What about the T/C (dose: 20.0 mg/kg/injection, schedule: Q04DX003 (ip), vehicle: other) of the same compound?
A: Its T/C is 87 % of control.

Q: What about the T/C (dose: 30.0 mg/kg/injection, schedule: Q04DX003 (ip), vehicle: saline) of the same compound?
A: The T/C was 168 % of control.

Q: Which T/C (dose: 100.0 mg/kg/injection, schedule: Q04DX003 (ip), vehicle: saline with Tween-80) does the source give for `c1csc(-c2nc3ccccc3s2)c1` here?
A: Its T/C is 109 % of control.

Q: And the T/C (dose: 200.0 mg/kg/injection, schedule: Q04DX003 (ip), vehicle: saline with Tween-80)?
A: The T/C was 100 % of control.

Q: And the T/C (dose: 400.0 mg/kg/injection, schedule: Q04DX003 (ip), vehicle: saline with Tween-80)?
A: Its T/C is 100 % of control.

Q: `CC(C)N(c1c2c(oc(=O)c1Cl)CCSC2)C(C)C` was tested. Which T/C [1] did it give?
A: The T/C was 99 % of control.

Q: What about the T/C [2] of the same compound?
A: The T/C was 101 % of control.

Q: What about the T/C [3] of the same compound?
A: The T/C was 96 % of control.

Q: Which T/C (dose: 25.0 mg/kg/injection, schedule: Q01DX005 (ip), vehicle: saline) does the source give for `CN1CC2OC2C2C1N2C#N` (stereo not drawn) here?
A: The T/C was 97 % of control.

Q: And the T/C (dose: 50.0 mg/kg/injection, schedule: Q01DX005 (ip), vehicle: saline)?
A: Its T/C is 106 % of control.

Q: What about the T/C (dose: 100.0 mg/kg/injection, schedule: Q01DX005 (ip), vehicle: saline) of the same compound?
A: The T/C was 111 % of control.

Q: And the T/C (dose: 200.0 mg/kg/injection, schedule: Q01DX005 (ip), vehicle: saline)?
A: Its T/C is 115 % of control.

Q: How did the T/C (dose: 1.56 mg/kg/injection, schedule: Q01DX009 (ip), vehicle: saline with Tween-80) turn out when `C/C(=N\NC(=S)N(C)C)c1ccccn1` was run?
A: The T/C was 105 % of control.

Q: And the T/C (dose: 3.12 mg/kg/injection, schedule: Q01DX009 (ip), vehicle: saline with Tween-80)?
A: Its T/C is 100 % of control.

Q: With `COC(=O)c1ccc(OCCOc2ccc(C(C)(C)CC(C)(C)C)cc2)c(N)c1` as the compound, how does the T/C (dose: 100.0 mg/kg/injection, schedule: Q01DX001 (ip), vehicle: Klucel (hydroxypropylcellulose) (HPC)) read?
A: Its T/C is 95 % of control.

Q: What about the T/C (dose: 200.0 mg/kg/injection, schedule: Q01DX001 (ip), vehicle: Klucel (hydroxypropylcellulose) (HPC)) of the same compound?
A: Its T/C is 104 % of control.

Q: What about the T/C (dose: 400.0 mg/kg/injection, schedule: Q01DX001 (ip), vehicle: Klucel (hydroxypropylcellulose) (HPC)) of the same compound?
A: The T/C was 100 % of control.
